The record followed here is patent publication US5770613A, “Telomerase inhibitors” (Geron Corporation, priority 1995, dated 1998).

The target in assay [1] is T1, telomerase (Homo sapiens, UniProt O14746).
T1 construct: preferably a cellular extract or other preparation containing telomerase; endogenous in cells
The assay is described as follows: Inhibition of telomerase activity (IC50). Type of assay: biochemical. The settings on record: approximate values (Table 2).

Another assay deals with Terminal Transferase. The assay is described as follows: Specificity screen versus telomerase. Type of assay: biochemical. Particulars: from IC50 screening. The source says:
(§1) Compound V was screened for activity (IC50) against telomerase and several enzymes having nucleic acid binding or modifying activities related to telomerase using standard techniques. The enzymes screened included Telomerase, Topoisomerase II, Terminal Transferase and Single-Stranded DNA Binding Protein (SSB).

For assay [2], the system named is Topoisomerase II. Description: Specificity screen versus telomerase. The settings on record: from IC50 screening. Type of assay: biochemical.
Text: as §1

The test system of assay [3] is Single-Stranded DNA Binding Protein (SSB). Description: Specificity screen versus telomerase. The settings on record: from IC50 screening. Type of assay: biochemical.
Text: as §1

The target of assay [4] is T1, telomerase. The assay is described as follows: specificity in IMR-90, OVCAR-5 and SK-OV-3 cell samples (Topoisomerase II, Single-Strand Binding Protein, Terminal Transferase). Particulars: cell samples dosed at one quarter of the IC50 for telomerase, versus Topoisomerase II. The class given is cell-based. Here is the method: In on experiment, Compound V was administered to IMR-90, OVCAR-5, and SK-OV-3 cell samples at a concentration one quarter that of its IC50 for telomerase. The effects of Compound V on the activity of Topoisomerase II, Single-Strand Binding Protein, and Terminal Transferase were then determined using standard methodologies.

For another assay, the system named is IMR-90 cells. Description: Long-term exposure of cell colonies, induction of senescence. The class given is cell-based. Particulars: 5 μM, added every second day; versus DMSO control. Here is the method:
(§2) Colonies of the ovarian tumor cell lines OVCAR-5, SK-OV-3 and IMR-90 cells were prepared using standard methods and materials. In one test, the colonies were prepared by seeding 15-centimeter dishes with about 10^6 cells in each dish. The dishes were incubated to allow the cell colonies to grow to about 80% confluence, at which time each of the colonies was divided into two groups. One group was exposed to a subacute dose of Compound V (5 μM) 4-8 hours after plating following the split; the other group was exposed to a DMSO control.
(§3) Each group was then allowed to continue to divide, and the groups were split evenly again (near confluence). The same number of cells were seeded for continued growth. The compound or control was added every second day to the samples at the same concentration delivered initially (5 μM). […] No effect was seen on SK-OV-3 cells.

The subject of the next assay is OVCAR-5 tumor cells. Description: Human tumor xenograft model in nude mice, tumor mass. Type of assay: in vivo. The protocol:
In vivo testing was also performed using a mouse xenograft model in which OVCAR-5 tumor cells were grafted onto nude mice. […] In contrast, mice treated with a control (DMSO) are expected to have tumor masses that continue to increase.
A human tumor xenograft model in which OVCAR-5 tumor cells were grafted into nude mice was constructed using standard techniques and materials. The mice were divided into two groups. One group was treated intraperitoneally with Compound V. The other group was treated with a control comprising DMSO and phosphate buffer solution (PBS). The average tumor mass for mice in each group was determined periodically following the xenograft using standard methods and materials.

Assay [5] relates to Topoisomerase II. The assay is described as follows: Enzyme-mediated DNA cleavage assay (Topoisomerase II targeting / cleavable complex formation). Type of assay: biochemical. Here is the method:
Compound V was tested for its ability to target Topoisomerase II in a standard enzyme-mediated DNA cleavage assay. The well known anti-tumor agent VP-16 was used as a positive control. […] The amount of linear DNA was proportional to the concentration of Compound V used in the experiment.

A further assay relates to IMR-90. The assay is described as follows: XTT assay for cytotoxicity. Type of assay: cell-based. Particulars: Homo sapiens, 72 hours, 3 μM to 1,000 μM, read-out: LD50 (the source's name). Here is the method: (§4) The XTT assay for cytotoxicity was performed using the ovarian tumor cells lines IMR-90, OVCAR-5 and SK-OV-3. Cells from the normal human cell line BJ were used as a control. The cell lines used in the assay were exposed to Compound V of the invention for 72 hours at concentrations ranging from 3 μM to 1,000 μM. During this period, the optical density (OD) of the samples was determined for light at 540 nanometers (nm).
For orientation: Tetrazolium assays rely on reduction of a dye to a coloured formazan, in cell work by metabolically active cells.

In the next assay the test system is SK-OV-3. Description: XTT assay for cytotoxicity. The settings on record: Homo sapiens, 72 hours, 3 μM to 1,000 μM, read-out: LD50 (the source's name). The class given is cell-based. The protocol: as §4
The next assay relates to OVCAR-5. The assay is described as follows: XTT assay for cytotoxicity. Particulars: Homo sapiens, 72 hours, 3 μM to 1,000 μM, read-out: LD50 (the source's name). Type of assay: cell-based. The protocol: as §4
For a further assay, the system named is OVCAR-5 cells. Description: Long-term exposure of cell colonies, effect on growth. Particulars: 5 μM, added every second day; versus DMSO control. Type of assay: cell-based. The protocol:
as §2, §3

Another assay deals with SK-OV-3 cells. Described as above. The class given is cell-based. The settings on record: 5 μM, added every second day; versus DMSO control. Here is the method: as §2, §3

“Also recorded” adds a separate entry of the source.

T1 sequence (O14746 whole entry): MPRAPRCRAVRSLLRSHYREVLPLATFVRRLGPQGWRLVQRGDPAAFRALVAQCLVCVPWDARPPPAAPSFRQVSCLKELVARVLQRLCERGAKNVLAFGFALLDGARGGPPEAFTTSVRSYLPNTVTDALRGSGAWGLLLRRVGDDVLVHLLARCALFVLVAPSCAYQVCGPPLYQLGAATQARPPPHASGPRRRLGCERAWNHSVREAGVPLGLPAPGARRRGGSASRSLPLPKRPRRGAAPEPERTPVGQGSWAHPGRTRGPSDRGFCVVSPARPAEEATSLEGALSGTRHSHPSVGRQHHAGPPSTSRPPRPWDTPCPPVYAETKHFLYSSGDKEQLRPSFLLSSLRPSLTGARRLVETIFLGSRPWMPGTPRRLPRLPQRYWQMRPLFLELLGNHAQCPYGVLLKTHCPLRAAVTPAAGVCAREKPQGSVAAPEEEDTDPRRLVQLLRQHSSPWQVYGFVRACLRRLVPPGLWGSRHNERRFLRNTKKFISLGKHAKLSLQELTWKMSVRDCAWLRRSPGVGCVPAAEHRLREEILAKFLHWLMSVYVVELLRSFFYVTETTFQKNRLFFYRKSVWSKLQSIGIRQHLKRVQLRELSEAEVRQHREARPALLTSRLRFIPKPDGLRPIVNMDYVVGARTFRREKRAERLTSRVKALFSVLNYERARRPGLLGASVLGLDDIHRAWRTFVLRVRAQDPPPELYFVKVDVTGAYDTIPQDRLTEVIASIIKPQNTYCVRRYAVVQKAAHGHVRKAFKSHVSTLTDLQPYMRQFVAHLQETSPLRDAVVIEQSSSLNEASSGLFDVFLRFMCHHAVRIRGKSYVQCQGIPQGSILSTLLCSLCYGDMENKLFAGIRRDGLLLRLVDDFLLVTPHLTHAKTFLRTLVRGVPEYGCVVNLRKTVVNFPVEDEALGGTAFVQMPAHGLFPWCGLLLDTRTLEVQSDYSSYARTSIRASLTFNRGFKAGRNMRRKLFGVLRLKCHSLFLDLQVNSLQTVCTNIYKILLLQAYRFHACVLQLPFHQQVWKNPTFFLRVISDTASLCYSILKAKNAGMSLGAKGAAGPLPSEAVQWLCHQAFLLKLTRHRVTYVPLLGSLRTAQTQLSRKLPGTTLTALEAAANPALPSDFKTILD

Take `N#Cc1ccc(C=O)nc1SCc1ccc(Cl)s1` [Compound IX]: on telomerase [1], the IC50 stood at 5 µM.
Take `N#Cc1ccc(C=O)nc1SCc1ccc(Cl)c(Cl)c1` [Compound V]: the “lower specificity for Terminal Transferase as compared to telomerase” value in the assay on Terminal Transferase was ≥ 5 fold. Besides, the “lower specificity for Topoisomerase II as compared to telomerase” value in the assay with Topoisomerase II [2] is on record as ≥ 5 fold. In assay [3], the “lower specificity for Single-Stranded DNA Binding Protein (SSB) as compared to telomerase” value was ≥ 5 fold. At telomerase [4], the “specificity for telomerase (factor)” value was “about 5”. In addition, the “induction of senescence earlier than DMSO control” value in the assay with IMR-90 cells is listed as “approximately 5 period doublings”. The tumor growth result in the assay with OVCAR-5 tumor cells (10 mg/(kg.day), intraperitoneal) is given as “not affected”. The “increase in tumor weight” value in the assay with OVCAR-5 tumor cells (25 mg/(kg.day), intraperitoneal) was “practically ceased after about 50 days”. Also, the “tumor mass over time” value in the assay on OVCAR-5 tumor cells (average, after increase for a period following initial dosing) is on record as “began to level with continuing treatment”. Further, the “tumor growth as compared to vehicle” value with OVCAR-5 tumor cells (intraperitoneal, p<0.05, unpaired t-test) was “statistically significant slowing of tumor growth”. Also, the “Topoisomerase II-mediated DNA cleavage (linear DNA in agarose gel)” value with Topoisomerase II [5] (VP-16 as positive control) was “targeted Topoisomerase II”. In the assay with Topoisomerase II [5] (compared with adriamycin and mitoxantrone), the “cleavable complex formation in Topoisomerase II, level of activity versus adriamycin and mitoxantrone” value was “greater than the well-known anti-tumor agents adriamycin and mitoxantrone; also recorded: stronger Topoisomerase II-targeting antitumor agent than the known Topoisomerase II-targeting agents adriamycin and mitoxantrone”. Also, the “inhibitory activity with respect to Topoisomerase II” value in the assay on Topoisomerase II [5] (qualitative statement) is “display inhibitory activity with respect to Topoisomerase II; also recorded: demonstrate inhibitory activity with respect to Topoisomerase II”. Moreover, the “Topoisomerase II activity relative to VP-16” value in the assay with Topoisomerase II [5] (relative to VP-16) is “one fifth the activity of VP-16”. Besides, the IC50 with IMR-90 came out at 5 µM; in the assay on SK-OV-3, 10 µM; in the assay with OVCAR-5 it was 15 µM; against telomerase [1] it was 4.5 µM. Further, the “effect on cell growth” value in the assay with OVCAR-5 cells is “small effect”. Moreover, the effect on cells result with SK-OV-3 cells is “No effect”.
For `N#Cc1ccc(C=O)nc1OCc1ccc(Cl)c(Cl)c1` [Compound XIII], the IC50 against telomerase [1] is 12.8 µM.
On telomerase [1], `N#Cc1ccc(C=O)nc1SCC(=O)c1ccc(Cl)cc1` [Compound XII] gave an IC50 of 15.1 µM.
For the compound `N#Cc1ccc(C=O)nc1SCc1ccc(CSc2nc(C=O)ccc2C#N)cc1` [Compound XIX], at telomerase [1], the IC50 turned out to be 5 µM.
On the same count and under the same terms, to `N#Cc1ccc(C=O)nc1SCC(=O)c1ccc(Cl)cc1Cl` [Compound XI] belongs 27 µM.
Turning to `N#Cc1ccc(C=O)nc1SCc1ccccc1CSc1nc(C=O)ccc1C#N` [Compound XVIII], the IC50 at telomerase [1] was found to be 6 µM.
With `N#Cc1ccc(C=O)nc1SCc1cccc(CSc2nc(C=O)ccc2C#N)c1` [Compound XVII], the IC50 against telomerase [1] is < 3.2 µM.
Consider `Cc1cc(C)c(CSc2nc(C=O)ccc2C#N)c(C)c1CSc1nc(C=O)ccc1C#N` [Compound XVI], for which the IC50 at telomerase [1] is < 3.2 µM.
On the same count and under the same terms, the figure for `Cc1cc(C)c(CSc2nc(C=O)ccc2C#N)cc1CSc1nc(C=O)ccc1C#N` [Compound XV] is < 3.2 µM.
For `Cc1cc(CSc2nc(C=O)ccc2C#N)c(C)cc1CSc1nc(C=O)ccc1C#N` [Compound XXIII], the IC50 against telomerase [1] is 7 µM.
At telomerase [1], `Cc1c(C)c(CSc2nc(C=O)ccc2C#N)c(C)c(CSc2nc(C=O)ccc2C#N)c1C` [Compound XXII] gave an IC50 of 4 µM.
As for `N#Cc1ccc(C=O)nc1SCc1ccccc1-c1ccccc1CSc1nc(C=O)ccc1C#N` [Compound XXIV], at telomerase [1], the IC50 is < 3.2 µM.
Consider `N#Cc1ccc(C=O)nc1SCc1c2ccccc2c(CSc2nc(C=O)ccc2C#N)c2ccccc12` [Compound XXIX], for which the IC50 at telomerase [1] was determined as 7 µM.
Consider `N#Cc1ccc(C=O)nc1SCc1cc(Cl)c(CSc2nc(C=O)ccc2C#N)cc1Cl` [Compound XXI], for which the IC50 at telomerase [1] is < 3.2 µM.
In the case of `N#Cc1ccc(C=O)nc1SCc1c(Cl)c(Cl)c(CSc2nc(C=O)ccc2C#N)c(Cl)c1Cl` [Compound XXVIII], the IC50 against telomerase [1] was < 3.2 µM.
On to `N#Cc1ccc(C=O)nc1SCc1cccc2cccc(CSc3nc(C=O)ccc3C#N)c12` [Compound XXVII], for which the IC50 against telomerase [1] is < 3.2 µM.
At telomerase [1], `N#Cc1ccc(C=O)nc1SCc1cc2ccccc2cc1CSc1nc(C=O)ccc1C#N` [Compound XXVI] yielded an IC50 of 6 µM.
Same read-out and setting: to `N#Cc1ccc(C=O)nc1SCc1cc(Br)ccc1-c1ccc(Br)cc1CSc1nc(C=O)ccc1C#N` [Compound XXV] belongs < 3.2 µM; to `N#Cc1ccc(C=O)nc1SCCCCSc1nc(C=O)ccc1C#N` [Compound XXXIV], 7 µM; to `Cc1c(CSc2nc(C=O)ccc2C#N)c(C)c(CSc2nc(C=O)ccc2C#N)c(C)c1CSc1nc(C=O)ccc1C#N` [Compound XXXI], < 3.2 µM.
The same measure, in the same setting: the figure for `N#Cc1ccc(C=O)nc1SCC#CCSc1nc(C=O)ccc1C#N` [Compound XXXVI] is 5 µM; for `N#Cc1ccc(C=O)nc1SCC=CCSc1nc(C=O)ccc1C#N` [Compound XXXV] it is 10 µM.
As to `N#Cc1ccc(C=O)nc1SCc1ccc2ccccc2c1CSc1nc(C=O)ccc1C#N` [Compound XXX], the IC50 at telomerase [1] stood at 7 µM.
The same measure, in the same setting: to `Cc1c(C)c(C)c(CSc2nc(C=O)ccc2C#N)c(CSc2nc(C=O)ccc2C#N)c1C` [Compound XX] belongs < 3.2 µM; to `N#Cc1ccc(C=O)nc1SCC(=O)c1ccc(Cl)c(Cl)c1` [Compound X], 10.9 µM; to `Cc1c(C)c(C)c(CSc2nc(C=O)ccc2C#N)c(C)c1C` [III], 9 µM.
Still for that read-out and setting: the figure for `N#Cc1ccc(C=O)nc1SCc1ccc(C(F)(F)F)cc1` [IV] is 18 µM.
With `CCc1c(CSc2nc(C=O)ccc2C#N)ccc2c1C(C)(C)CCC2(C)C` [VIII], at telomerase [1], the IC50 turned out to be 21 µM.
Take `CC1(C)CCC(C)(C)c2cc(CSc3nc(C=O)ccc3C#N)ccc21` [VII]: on telomerase [1], the IC50 was 8 µM.
At telomerase [1], `N#Cc1ccc(C=O)nc1SCc1c(Cl)cccc1Cl` [VI] gave an IC50 of 7 µM.
Turning to `N#Cc1ccc(C=O)nc1SCc1cc(CSc2nc(C=O)ccc2C#N)c(CSc2nc(C=O)ccc2C#N)cc1CSc1nc(C=O)ccc1C#N` [XXXIII], the IC50 at telomerase [1] was < 3.2 µM.
`N#Cc1ccc(C=O)nc1SCc1ccc(CSc2nc(C=O)ccc2C#N)c(CSc2nc(C=O)ccc2C#N)c1CSc1nc(C=O)ccc1C#N` [XXXII]: at telomerase [1], the IC50 is < 3.2 µM.
